In US20230172958A1, “USE OF COMPOUNDS FOR TREATING VIRAL INFECTIONS” (priority 2020, published 2023):

Key:
[1] = system: Human Peripheral Blood Lymphocytes; assay: MTT toxicity assay on normal cells; format: cell-based; conditions: 48 hours
Description: Toxicity studies of compounds of the present invention on normal cells The toxicity study was performed on Human Peripheral Blood Lymphocytes obtained differential centrifugation of defibrinated blood. MTT assay for compound of the present invention was performed to determine its toxicity. MTT assay is a simple and sensitive assay where, metabolic reducing activity of the cells is measured. It was carried out in the following manner.
A required volume of cell suspension was prepared as per the cell plating efficiency. 200 μl of prepared cell suspension was added in labelled 96 well plates and the plates were placed in an incubator for 18-24 hours at 37° C. and 5% CO2. Then, 2 μl of respective compound dilution was added and the plates were placed in the incubator for 48 hours at 37° C. and 5% CO2. The suspension was aspirated from the plates and 100 μl of working MTT solution (0.5 mg/ml MTT prepared from 5 mg/ml MTT stock in 1× complete media) was added. The plates were incubated in the incubator for 4 hours at 37° C. and 5% CO2. The plates were spinned down, supernatant removed, 200 μl DMSO was added, mixed gently and placed in the incubator for 10 minutes at 37° C. and 5% CO2. The absorbance at 570 nm was read and percentage viability and IC50 value of the compounds was calculated using regression analysis.

[2] = Cytotoxicity by Hoechst 33342 / Sytox orange staining; format: cell-based; conditions: African green monkey, Vero E6 cells
Description: The assay was done in a 96 well plate format in 3 wells for each sample. 1×10e4 Vero E6 cells were plated per well and incubated at 37° C. overnight for monolayer formation. Next day, cells were incubated with the test substance (TS) at the indicated concentration with final DMSO concentration being 0.5%. The Control cells were incubated with 0.5% DMSO only. 24 and 48 hours later, cells were stained with Hoechst 33342 and Sytox orange dye. Images were taken at 10×, 16 images per well, which covers 90% of the well area using ImageXpress Microconfocal (Molecular Devices). Hoechst 33342 nucleic acid stain is a popular cell-permanent nuclear counterstain that emits blue fluorescence when bound to dsDNA. It stains all the live and dead cells. Sytox orange dye stains the nucleic acid in the cells with compromised membranes. This stain is an indicator of cell death. First, the software will count total number of cells in the Hoechst image. In the Sytox image, it will count, among Hoechst positive cells, how many cells are positive for Sytox.

Compound: COC1COC(Oc2ccc(-c3ccc4c(c3)OCO4)c3ccccc23)C(O)C1OC (stereo not drawn) [Compound of Formula E, 2-(1-(benzo[d][1,3]dioxol-5-yl)naphthalen-4-yloxy)-tetrahydro-4,5-dimethoxy-2H-pyran-3-ol]
- IC50 (μM) [1]: No activity (Nontoxic)
- viability at 24 h, 10 µM ([2]; 24 hours, read-out: % Cell viability 24 hours): 99.6%
- viability at 48 h, 10 µM ([2]; 48 hours, read-out: % Cell viability 48 hours): 77.8%
